In US20260234139A1, “PGDH INHIBITORS AND METHODS OF MAKING AND USING” (Epirium Bio Inc., priority 2023, published 2026):

Key:
A549 = A549 EC50 (cell assay, method not described); format: cell-based
15-PGDH/HPGD = target: T1, 15-PGDH/HPGD (Homo sapiens, UniProt P15428); test: hPGDH inhibitor screening biochemical assay; details: 10 nM enzyme, 15 μM Prostaglandin E2, 0.25 mM NAD, fluorescence ex/em 340/485 nm
T1 construct: purchased R&D System 5660-DH
T1 sequence (P15428 1-266): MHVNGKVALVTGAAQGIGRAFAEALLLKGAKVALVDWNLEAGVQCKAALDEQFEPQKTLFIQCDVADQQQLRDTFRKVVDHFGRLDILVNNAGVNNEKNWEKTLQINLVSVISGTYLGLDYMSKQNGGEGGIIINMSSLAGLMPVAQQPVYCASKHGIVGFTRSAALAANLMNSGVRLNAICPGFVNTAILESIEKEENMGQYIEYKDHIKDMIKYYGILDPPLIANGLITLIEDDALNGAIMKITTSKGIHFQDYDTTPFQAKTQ
Procedure: A hydroxyprostaglandin dehydrogenase inhibition screening biochemical assay can be performed to assess the synthesized inhibitors provided herein. Provided herein is an exemplary biochemical assay for hPGDH inhibitor screening.
The in vitro biochemical assay can be performed in white, 384 plates in total 20 μl reaction volume consisting of 10 nM of 15-PGDH/HPGD (R&D System #5660-DH), 15 μM Prostaglandin E2 (Sigma, Cat #P5640-10 MG) and 0.25 mM B-Nicotinamide adenine dinucleotide sodium salt (Sigma, Cat #N0632-5G) made in reaction buffer (50 mM Tris-HCl, pH 7.5, 0.01% Tween 20) at 10-point dose response curve for test/tool compounds. Briefly, 5 μl (4×) of compounds solution and 5 μl (final concentration, 10 nM) of enzyme solution is added to white 384 well plates and incubated for 10 mins at 37° C. 5 μl (4×) of Prostaglandin E2 and 5 μl (4×) of β-Nicotinamide adenine dinucleotide sodium salt is added to the wells and incubated for 10 mins at room temperature. Fluorescence is recorded at ex/em=340 nm/485 nm.

EC50 (A549; Homo sapiens, A549, A549) | IC50 (15-PGDH/HPGD) | EC50 (A549; A549) | Compound
< 0.1 µM | < 0.1 µM |  | O[C@@H](c1cnc2c(cnn2-c2ccc3nc(N4CCOCC4)nn3c2)c1)C1COC1 [Compound 64B]
 | < 0.1 µM | < 0.1 µM | CC(C)OCC(O)c1cnc2c(cnn2-c2cccc(-c3nnc[nH]3)c2)c1 (single isomer, unassigned) [Compound 18A]
< 0.1 µM | < 0.1 µM |  | CCCOC(C)(C)[C@@H](O)c1cnc2c(cnn2-c2cccc(-c3nnc[nH]3)c2)c1 [Compound 57B]
< 0.1 µM | < 0.1 µM |  | O=C(O)c1ccc(-n2ncc3cc([C@@H](O)COCC4CC4)cnc32)cc1 [Compound 107A]
0.1 to 1 µM | 0.1 to 1 µM |  | COC1([C@@H](O)c2cnc3c(cnn3-c3cccc(-c4nnc[nH]4)c3)c2)CCC1 [Compound 65A]
< 0.1 µM | < 0.1 µM |  | CC1(OC[C@@H](O)c2cnc3c(cnn3-c3ccc(C(=O)O)cc3)c2)CCC1 [Compound 90B]
≥ 1 µM |  |  | O=C(O)c1ccc(-n2ncc3cc([C@H](O)C4CC(F)(F)C4)cnc32)cn1 [Compound 97A]
≥ 1 µM |  |  | O=C(O)c1ccc(-n2ncc3cc([C@@H](O)COC4CC(F)(F)C4)cnc32)cc1 [Compound 91A]
< 0.1 µM | < 0.1 µM |  | CC(C)OC[C@@H](O)c1cnc2c(cnn2-c2ccc3nc(N4CCOCC4)nn3c2)c1 [Compound 60A]
 | 0.1 to 1 µM |  | OC1(c2cnc3c(ccn3-c3cc(Cl)cc(-c4nnc[nH]4)c3)c2)CCCC1 [Compound 13]
0.1 to 1 µM | 0.1 to 1 µM |  | C[C@H](OC1CCC1)[C@H](O)c1cnc2c(cnn2-c2ccc(C(=O)O)cc2)c1 [Compound 108C]
< 0.1 µM | < 0.1 µM |  | O[C@H](COC1CC1)c1cnc2c(ccn2-c2cccc(-c3nnc[nH]3)c2)n1 [Compound 38A]
≥ 1 µM | ≥ 1 µM |  | CNC(=O)c1cccc(-n2ncc3cc([C@H](O)COC4CCC4)cnc32)c1 [Compound 110B]
≥ 1 µM | ≥ 1 µM |  | COC1([C@H](O)c2cnc3c(cnn3-c3cccc(-c4nnc[nH]4)c3)c2)CCC1 [Compound 65B]
≥ 1 µM | ≥ 1 µM |  | CCOC1([C@H](O)c2cnc3c(cnn3-c3ccc(C(=O)O)cc3)c2)CC1 [Compound 58A]
< 0.1 µM | < 0.1 µM |  | CN(C)C(=O)c1ccc(-n2ncc3cc([C@H](O)COC4CCC4)cnc32)cc1 [Compound 80A]
0.1 to 1 µM | 0.1 to 1 µM |  | CCOC(C)(C)[C@H](O)c1cnc2c(cnn2-c2ccc(C(=O)O)cc2)c1 [Compound 53A]
< 0.1 µM | < 0.1 µM |  | O[C@H](c1cnc2c(cnn2-c2cccc(-c3nnc[nH]3)c2)c1)[C@H]1CCOC1 [Compound 68B]
0.1 to 1 µM | 0.1 to 1 µM |  | CC(C)OC[C@H](O)c1cnc2c(cnn2-c2ccc(CCC(=O)O)cc2)c1 [Compound 69B]
< 0.1 µM | < 0.1 µM |  | CNC(=O)c1ccc(-n2ncc3cc([C@H](O)COC4CCC4)cnc32)cc1 [Compound 84A]
≥ 1 µM | < 0.1 µM |  | CC(C)(O)C[C@@H](O)c1cnc2c(cnn2-c2cccc(-c3nnc[nH]3)c2)c1 [Compound 43A]

EC50 (A549; Homo sapiens, A549, A549) | IC50 (15-PGDH/HPGD) | EC50 (A549; A549) | Compound
≥ 1 µM | 0.1 to 1 µM |  | CCOC1([C@@H](O)c2cnc3c(cnn3-c3cccc(-c4nnc[nH]4)c3)c2)CCC1 [Compound 83B]
< 0.1 µM |  |  | O[C@H](c1cnc2c(cnn2-c2cccc(-c3nnc[nH]3)c2)c1)C1CCCC1 [Compound 9A]
0.1 to 1 µM |  |  | O[C@@H](c1cnc2c(ccn2-c2cccc(-c3nnc[nH]3)c2)c1)C1CCCC1 [Compound 6B]
≥ 1 µM | ≥ 1 µM |  | C[S+]([O-])c1cccc(-n2ncc3cc([C@H](O)COC4CCC4)cnc32)c1 (some centres unmarked) [Compound 125B]
≥ 1 µM |  |  | CS(=O)(=O)c1cccc(-n2ncc3cc([C@H](O)COC4CCC4)cnc32)c1 [Compound 123B]
≥ 1 µM | 0.1 to 1 µM |  | CC(C)OC[C@H](O)c1cnc2c(cnn2-c2ccc(OCC(=O)O)cc2)c1 [Compound 78A]
< 0.1 µM | < 0.1 µM |  | O[C@H](COC1CCC1)c1cnc2c(cnn2-c2cncc(-c3nnc[nH]3)c2)c1 [Compound 117B]
0.1 to 1 µM |  |  | Cc1nn(-c2ccc(C(=O)O)cc2)c2ncc([C@@H](O)C3CC(F)(F)C3)cc12 [Compound 102B]
 | < 0.1 µM |  | CC(C)OC[C@@H](O)c1cnc2c(cnn2-c2ccc(OCC(=O)O)cc2)c1 [Compound 78B]
 | < 0.1 µM |  | CC(C)OC[C@H](O)c1cnc2c(cnn2-c2ccc(CCCC(=O)O)c(F)c2)c1 [Compound 77B]
< 0.1 µM |  |  | O=C(O)c1ccc(-n2ccc3cc([C@H](O)[C@@H]4CCCO4)cnc32)cc1 [Compound 98B]
 | 0.1 to 1 µM |  | CC(C)(O)c1cnc2c(ccn2-c2cc(Cl)cc(-c3nnc[nH]3)c2)c1 [Compound 14]
0.1 to 1 µM |  |  | CCCCC(F)(F)[C@H](O)c1cnc2c(ccn2-c2cccc(-c3nnc[nH]3)c2)c1 [Compound 8B]
 | 0.1 to 1 µM |  | O=C(O)c1ccc(-n2ncc3cc([C@@H](O)C4COC4)ccc32)cc1 [Compound 120B]
 | < 0.1 µM |  | O=C(O)CCc1ccc(-n2ncc3cc([C@H](O)COC4CC4)cnc32)cc1F [Compound 86B]
0.1 to 1 µM |  |  | O=C(O)c1ccc(-n2ccc3cc([C@H](O)COC4CCC4)cnc32)cc1 [Compound 103B]
 | ≥ 1 µM |  | CC(C)(O)c1cnc2c(cnn2-c2cc(Cl)cc(-c3nnc[nH]3)c2)c1 [Compound 19, 2-[1-[3-chloro-5-(4H-1,2,4-triazol-3-yl)phenyl]pyrazolo[3,4-b]pyridin-5-yl]propan-2-ol]
< 0.1 µM |  |  | O=C(O)c1ccc(-n2ncc3cc([C@@H](O)COCC4CCC4)cnc32)cc1 [Compound 101A]
 | ≥ 1 µM |  | CC(O)(c1cnc2c(ccn2-c2cccc(-c3nnc[nH]3)c2)c1)C1CCCC1 (single isomer, unassigned) [Compound 11B]
 | 0.1 to 1 µM |  | CC(O)(c1cnc2c(ccn2-c2cccc(-c3nnc[nH]3)c2)c1)C1CCCC1 (single isomer, unassigned) [Compound 11A]
0.1 to 1 µM |  |  | Cc1nn(-c2ccc(C(=O)O)cc2)c2ncc([C@H](O)COC3CCCC3)cc12 [Compound 104B]

EC50 (A549; Homo sapiens, A549, A549) | IC50 (15-PGDH/HPGD) | EC50 (A549; A549) | Compound
≥ 1 µM |  |  | O=C(O)c1ccc(-n2ncc3cc([C@H](O)COC4CC(F)(F)C4)cnc32)cc1 [Compound 91B]
< 0.1 µM |  |  | OC(c1cnc2c(ccn2-c2cccc(-c3nnc[nH]3)c2)c1)C1CC(F)(F)C1 (stereo in doubt) [Compound 7B, (S)-(3,3-difluorocyclobutyl)-[1-[3-(4H-1,2,4-triazol-3-yl)phenyl]pyrrolo[2,3-b]pyridin-5-yl]methanol]
< 0.1 µM |  |  | CC1(C)CC(OC[C@@H](O)c2cnc3c(cnn3-c3ccc(C(=O)O)cc3)c2)C1 [Compound 105B]
< 0.1 µM |  |  | O[C@H](c1cnc2c(ccn2-c2cccc(-c3nnc[nH]3)c2)c1)C1CCCC1 [Compound 6A]
0.1 to 1 µM |  |  | CS(=O)(=O)c1cccc(-n2ncc3cc([C@@H](O)COC4CCC4)cnc32)c1 [Compound 123A]
 | < 0.1 µM |  | O[C@@H](COC1CCC1)c1cnc2c(cnn2-c2ccc(-c3nnn[nH]3)cc2)c1 [Compound 79B]
≥ 1 µM |  |  | Cc1nn(-c2ccc(C(=O)O)cc2)c2ncc([C@H](O)C3CC(F)(F)C3)cc12 [Compound 102A]
< 0.1 µM |  |  | O=C(O)c1ccc(-n2ccc3cc([C@@H](O)COC4CCC4)cnc32)cc1 [Compound 103A]
0.1 to 1 µM |  |  | Cc1nn(-c2ccc(C(=O)O)cc2)c2ncc([C@@H](O)COC3CCCC3)cc12 [Compound 104A]
0.1 to 1 µM |  |  | CC1(C)CC(OC[C@H](O)c2cnc3c(cnn3-c3ccc(C(=O)O)cc3)c2)C1 [Compound 105A]
< 0.1 µM |  |  | O[C@@H](c1cnc2c(cnn2-c2cccc(-c3nnc[nH]3)c2)c1)C1CCCC1 [Compound 9B]
≥ 1 µM |  |  | O=C(O)c1ccc(-n2ccc3cc([C@@H](O)[C@H]4CCCO4)cnc32)cc1 [Compound 100A]
< 0.1 µM |  |  | OC(c1cnc2c(ccn2-c2cccc(-c3nnc[nH]3)c2)c1)C1CC(F)(F)C1 (stereo in doubt) [Compound 7A, (R)-(3,3-difluorocyclobutyl)-[1-[3-(4H-1,2,4-triazol-3-yl)phenyl]pyrrolo[2,3-b]pyridin-5-yl]methanol]
≥ 1 µM |  |  | O=C(O)c1ccc(-n2ccc3cc([C@@H](O)[C@@H]4CCCO4)cnc32)cc1 [Compound 98A]
 | < 0.1 µM |  | CC(C)(C)OC[C@H](O)c1cnc2c(ccn2-c2cccc(-c3nnc[nH]3)c2)c1 [Compound 31A]
< 0.1 µM |  |  | O=C(O)c1ccc(-n2ccc3cc([C@H](O)[C@H]4CCCO4)cnc32)cc1 [Compound 100B]
≥ 1 µM |  |  | O=C(O)CCc1ccc(-n2ncc3cc([C@H](O)COC4CCC4)cnc32)cc1F [Compound 82B]
< 0.1 µM |  |  | CCCCC(F)(F)[C@@H](O)c1cnc2c(ccn2-c2cccc(-c3nnc[nH]3)c2)c1 [Compound 8A]
< 0.1 µM |  |  | O=C(O)c1ccc(-n2ncc3cc([C@@H](O)C4CC(F)(F)C4)cnc32)cn1 [Compound 97B]
